SMILES strings stand for the structures. pEC50: −log10 of the molar value.

The first test deals with T1, GCase (Homo sapiens, UniProt P04062).
T1 construct: endogenous in cells; host or cells: HeLa cells
T1 sequence (P04062 40-536): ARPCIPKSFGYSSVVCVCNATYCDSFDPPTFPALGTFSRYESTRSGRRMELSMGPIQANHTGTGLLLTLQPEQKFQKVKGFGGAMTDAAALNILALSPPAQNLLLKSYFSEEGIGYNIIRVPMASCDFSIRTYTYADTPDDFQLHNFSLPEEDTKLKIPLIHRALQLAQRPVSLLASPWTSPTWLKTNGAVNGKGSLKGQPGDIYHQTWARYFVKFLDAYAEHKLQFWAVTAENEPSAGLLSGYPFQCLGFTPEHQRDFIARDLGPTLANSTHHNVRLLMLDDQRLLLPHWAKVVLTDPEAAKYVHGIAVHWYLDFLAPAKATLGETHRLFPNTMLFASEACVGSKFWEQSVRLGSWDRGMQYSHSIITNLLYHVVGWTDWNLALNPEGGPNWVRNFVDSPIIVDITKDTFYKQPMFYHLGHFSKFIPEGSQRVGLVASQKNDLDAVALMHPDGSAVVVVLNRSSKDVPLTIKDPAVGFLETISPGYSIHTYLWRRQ
Put plainly: activation of GCase in a live cell PFB assay in HELA cells. In kind it is cell-based. The note with it: EC50 given as range classes. The method, then:
Exemplary compounds were evaluated for activation of GCase in a live cell PFB assay in HELA cells (essentially as described in Ysselstein et al., “LRRK2 kinase activity regulates lysosomal glucocerebrosidase in neurons derived from Parkinson's disease patients” Nature Communications (2019) 10:5570). […] EC50 ranges: A: <10 μM; B: >10-50 μM; C: >50-100 μM; D: >100 μM.
The term pEC50 denotes the negative decadic logarithm of the EC50, by convention in mol/L. `O=C1CC2(CCN(c3cnc4cnn(CC(F)F)c4n3)CC2)CN1Cc1ccc(Cl)cn1` [Cmpd 400] showed a negative logarithm of the EC50 (pEC50) of 4.30 to 5.00.
On the same count and under the same terms, next, `FC(F)Cn1ncc2ncc(N3CCC4(CN(c5cncc(Cl)c5)C4)C3)nc21` [Cmpd 401]: 4.30 to 5.00; `Cc1nc(N2CC3(CCN(c4cnc5cnn(CC(F)F)c5n4)C3)C2)ncc1Cl` [Cmpd 402]: less than 4.00; `FC(F)Cn1ncc2ncc(N3CCC4(CN(c5ccc(Cl)cn5)C4)C3)nc21` [Cmpd 403]: 4.30 to 5.00.
The molecule `Cc1cc(N2CC3(CCN(c4cnc5cnn(CC(F)F)c5n4)C3)C2)nc(C(F)(F)F)n1` [Cmpd 404] showed a negative-log EC50 (pEC50) greater than 5.00.
For `FC(F)Cn1ncc2ncc(N3CCC4(CN(c5cccc(OC(F)(F)F)n5)C4)C3)nc21` [Cmpd 405], the negative-log EC50 (pEC50) was 4.30 to 5.00.
Same read-out and setting: next, `FC(F)Cn1ncc2ncc(N3CCC4(CN(c5cccc(OC(F)F)n5)C4)C3)nc21` [Cmpd 406]: 4.30 to 5.00; `Fc1cc(Cl)cnc1N1CC2(CCN(c3cnc4cnn(CC(F)F)c4n3)C2)C1` [Cmpd 407]: 4.30 to 5.00; `Cc1cc(Cl)cnc1N1CC2(CCN(c3cnc4cnn(CC(F)F)c4n3)C2)C1` [Cmpd 408]: 4.30 to 5.00.
In the case of `FC(F)Cn1ncc2ncc(N3CCC4(CN(c5cccc(OCC(F)(F)F)n5)C4)C3)nc21` [Cmpd 409], the negative-log EC50 (pEC50) was 4.30 to 5.00.
On the same count and under the same terms, next, `COc1ncc(N2CC3(CCN(c4cnc5cnn(CC(F)F)c5n4)C3)C2)cn1` [Cmpd 410]: 4.00 to 4.30; `FC(F)Cn1ncc2ncc(N3CCC4(CN(c5ccnc(OC(F)(F)F)c5)C4)C3)nc21` [Cmpd 411]: 4.30 to 5.00; `FC(F)Cn1ncc2ncc(N3CCC4(CN(c5ccnc(OCC(F)(F)F)c5)C4)C3)nc21` [Cmpd 412]: 4.30 to 5.00.
Same read-out and setting: next, `O=S(=O)(c1cncc(C(F)(F)F)c1)N1CC2(CCN(c3cnc4cnn(CC(F)F)c4n3)C2)C1` [Cmpd 413]: greater than 5.00; `O=S(=O)(c1ccc(C(F)(F)F)nc1)N1CC2(CCN(c3cnc4cnn(CC(F)F)c4n3)C2)C1` [Cmpd 414]: 4.30 to 5.00; `O=S(=O)(CCC(F)(F)F)N1CC2(CCN(c3cnc4cnn(CC(F)F)c4n3)C2)C1` [Cmpd 415]: 4.30 to 5.00.
On the same count and under the same terms, next, `Cc1ccc(S(=O)(=O)N2CC3(CCN(c4cnc5cnn(CC(F)F)c5n4)C3)C2)cn1` [Cmpd 416]: 4.30 to 5.00; `Cc1cccc(S(=O)(=O)N2CC3(CCN(c4cnc5cnn(CC(F)F)c5n4)C3)C2)c1` [Cmpd 417]: greater than 5.00; `O=S(=O)(c1cccc(Cl)c1)N1CC2(CCN(c3cnc4cnn(CC(F)F)c4n3)C2)C1` [Cmpd 418]: greater than 5.00.
Consider `Cc1ccc(C(=O)N2CC3(CCN(c4cnc5cnn(CC(F)F)c5n4)C3)C2)cc1` [Cmpd 419], for which the pEC50 is 4.30 to 5.00.
The molecule `O=C(c1cc(Cl)cc(Cl)n1)N1CC2(CCN(c3cnc4cnn(CC(F)F)c4n3)C2)C1` [Cmpd 420] had a pEC50 of 4.30 to 5.00.
`O=C1CC2(CCN(c3cnc4cnn(CC(F)F)c4n3)CC2)CN1Cc1ccc(Cl)cc1F` [Cmpd 421] gave a pEC50 greater than 5.00.
`Cc1nc(N2CC3(CCN(c4cnc5cnn(CC(F)F)c5n4)C3)C2)cc(C(F)(F)F)n1` [Cmpd 422] gave a pEC50 greater than 5.00.
On the same count and under the same terms, next, `Cc1ncc(CN2CC3(CCN(c4cnc5cnn(CC(F)F)c5n4)CC3)CC2=O)s1` [Cmpd 423]: 4.30 to 5.00; `FC(F)(F)Cn1ncc2cnc(N3CCC4(CN(c5ccnc(C(F)(F)F)c5)C4)C3)nc21` [Cmpd 424]: greater than 5.00.
Same read-out and setting: next, `FC(F)(F)c1cc(N2CC3(CCN(c4cncc(-c5nncs5)n4)C3)C2)ccn1` [Cmpd 425]: 4.00 to 4.30.
On the same count and under the same terms, next, `FC(F)(F)Cn1ncc2ncc(N3CCC4(CN(c5cnc(C(F)(F)F)nc5)C4)C3)nc21` [Cmpd 426]: 4.30 to 5.00.
`FC(F)(F)c1ncc(N2CC3(CCN(c4cnc5cnn(C6COC6)c5n4)C3)C2)cn1` [Cmpd 427] gave a negative logarithm of the EC50 (pEC50) of 4.30 to 5.00.
On the same count and under the same terms, next, `Cc1nn(C2COC2)c2nc(N3CCC4(CN(c5cnc(C(F)(F)F)nc5)C4)C3)cnc12` [Cmpd 428]: greater than 5.00; `Cc1nn(CC(F)F)c2nc(N3CCC4(CN(c5cnc(C(F)(F)F)nc5)C4)C3)cnc12` [Cmpd 429]: less than 4.00; `FC(F)(F)c1ncc(N2CC3(CCN(c4cncc(-c5nncs5)n4)C3)C2)cn1` [Cmpd 430]: greater than 5.00.
Take `FC(F)(F)Cn1ncc2cnc(N3CCC4(CN(c5cnc(C(F)(F)F)nc5)C4)C3)nc21` [Cmpd 432]: the pEC50 was greater than 5.00.
Same read-out and setting: next, `Cc1nn(CC(F)F)c2nc(N3CCC4(CN(c5cnc(C(F)(F)F)nc5)C4)C3)ncc12` [Cmpd 433]: 4.30 to 5.00.

Staying with this test, now noted: activation of GCase, EC50 ranges.
`FC(F)(F)c1ncc(N2CC3(CCN(c4ncc5cnn(C6COC6)c5n4)C3)C2)cn1` [Cmpd 434] had a negative logarithm of the EC50 (pEC50) of 4.30 to 5.00.
Still for that read-out and setting: next, `O=C(c1cccc(OC(F)F)c1)N1CC2(CCN(c3cnc4cnn(CC(F)F)c4n3)C2)C1` [Cmpd 435]: greater than 5.00; `FC(F)Cn1ncc2ncc(N3CCC4(CN(c5ccc(OCC(F)(F)F)nc5)C4)C3)nc21` [Cmpd 436]: 4.30 to 5.00.
Still for that read-out and setting: next, `Cc1cc(C(F)(F)F)cnc1N1CC2(CCN(c3cnc4cnn(CC(F)F)c4n3)C2)C1` [Cmpd 437]: 4.00 to 4.30; `FC(F)Cn1ncc2ncc(N3CCC4(C3)CN(c3ncc(Cl)cn3)C4)nc21` [Cmpd 438]: 4.30 to 5.00.
Still for that read-out and setting: next, `FC(F)Cn1ncc2ncc(N3CCC4(CN(c5cnc(OCC(F)(F)F)nc5)C4)C3)nc21` [Cmpd 439]: 4.30 to 5.00; `FC(F)Cn1ncc2ncc(N3CCC4(CN(c5ccc(C(F)(F)F)nn5)C4)C3)nc21` [Cmpd 440]: 4.00 to 4.30.
Regarding `O=C1CC2(CCN(c3cnc4cnn(CC(F)F)c4n3)CC2)CN1Cc1ccc(OC(F)(F)F)cc1` [Cmpd 441], the negative logarithm of the EC50 (pEC50) was greater than 5.00.
The molecule `O=C1CC2(CCN(c3cnc4cnn(CC(F)F)c4n3)CC2)CN1Cc1ccc(OC(F)F)cc1` [Cmpd 442] gave a pEC50 greater than 5.00.
On the same count and under the same terms, next, `O=C1CC2(CCN(c3cnc4cnn(CC(F)F)c4n3)CC2)CN1Cc1ccc(C(F)(F)F)cc1` [Cmpd 443]: greater than 5.00; `O=C1CC2(CCN(c3cnc4cnn(CC(F)F)c4n3)CC2)CN1Cc1ccc(F)cc1` [Cmpd 444]: greater than 5.00.
In turn, `O=C1CC2(CCN(c3cnc4cnn(CC(F)F)c4n3)CC2)CN1Cc1ccc(Cl)cc1` [Cmpd 445] gave a negative-log EC50 (pEC50) of 4.30 to 5.00.
In turn, `O=C1CC2(CCN(c3cnc4cnn(CC(F)F)c4n3)CC2)CN1Cc1ccc(C(F)(F)F)cc1F` [Cmpd 446] gave a pEC50 greater than 5.00.
Molecule `O=C1CC2(CCN(c3cnc4cnn(CC(F)F)c4n3)CC2)CN1Cc1cc(F)ccc1F` [Cmpd 447] showed a pEC50 greater than 5.00.
The same measure, in the same setting: next, `O=C1CC2(CCN(c3cnc4cnn(CC(F)F)c4n3)CC2)CN1Cc1ccc(Cl)c(F)c1` [Cmpd 448]: greater than 5.00; `O=C1CC2(CCN(c3cnc4cnn(CC(F)F)c4n3)CC2)CN1Cc1ccc(F)c(Cl)c1` [Cmpd 449]: greater than 5.00; `FC(F)Cn1ncc2ncc(N3CCC4(CN(c5ccc(OC(F)F)nc5)C4)C3)nc21` [Cmpd 450]: 4.30 to 5.00.
On the same count and under the same terms, next, `FC(F)Cn1ncc2ncc(N3CCC4(CN(c5ccc(OC(F)(F)F)nc5)C4)C3)nc21` [Cmpd 451]: 4.30 to 5.00.
Still for that read-out and setting: next, `FC(F)Cn1ncc2ncc(N3CCC4(CN(c5ccnc(OC(F)F)c5)C4)C3)nc21` [Cmpd 452]: greater than 5.00; `Fc1cnc(N2CC3(CCN(c4cnc5cnn(CC(F)F)c5n4)C3)C2)cc1C(F)(F)F` [Cmpd 453]: 4.30 to 5.00; `Cc1cc(N2CC3(CCN(c4cnc5cnn(C6COC6)c5n4)C3)C2)nc(C(F)(F)F)n1` [Cmpd 454]: 4.30 to 5.00.
With `Cc1nc(N2CC3(CCN(c4cnc5c(C)nn(C6COC6)c5n4)C3)C2)cc(C(F)(F)F)n1` [Cmpd 455], the negative-log EC50 (pEC50) is 4.30 to 5.00.
Still for that read-out and setting: next, `Cc1cc(N2CC3(CCN(c4cnc5cnn(C6COC6)c5n4)CC3)CC2=O)nc(C(F)(F)F)n1` [Cmpd 456]: 4.30 to 5.00; `Cc1nc(N2CC3(CCN(c4cnc5cnn(C6COC6)c5n4)CC3)CC2=O)cc(C(F)(F)F)n1` [Cmpd 457]: 4.30 to 5.00.
As to `Cc1cc(N2CC3(CCN(c4cnc5c(C)nn(C6COC6)c5n4)CC3)CC2=O)nc(C(F)(F)F)n1` [Cmpd 458], the pEC50 is greater than 5.00.
The same measure, in the same setting: next, `Cc1nc(N2CC3(CCN(c4cnc5c(C)nn(C6COC6)c5n4)CC3)CC2=O)cc(C(F)(F)F)n1` [Cmpd 459]: 4.30 to 5.00.
For the molecule `Cc1nn(C2COC2)c2nc(N3CCC4(CN(c5cnc(C(F)(F)F)nc5)C4)C3)ncc12` [Cmpd 460], the negative-log EC50 (pEC50) was greater than 5.00.
Still for that read-out and setting: next, `Cc1ncc(N2CC3(CCN(c4cnc5cnn(CC(F)F)c5n4)C3)C2)cn1` [Cmpd 461]: less than 4.00.
On the same count and under the same terms, next, `CCc1ncc(N2CC3(CCN(c4cnc5cnn(CC(F)F)c5n4)C3)C2)cn1` [Cmpd 462]: 4.30 to 5.00; `Cc1cc(N2CC3(CCN(c4cnc5cnn(CC(F)(F)F)c5n4)C3)C2)nc(C(F)(F)F)n1` [Cmpd 463]: 4.30 to 5.00; `Cc1cc(N2CC3(CCN(c4cnc5c(C)nn(CC(F)F)c5n4)C3)C2)nc(C(F)(F)F)n1` [Cmpd 464]: greater than 5.00.
The molecule `Cc1cc(N2CC3(CCN(c4cncc(-c5nncs5)n4)C3)C2)nc(C(F)(F)F)n1` [Cmpd 465] showed a pEC50 of less than 4.00.
Still for that read-out and setting: next, `Cc1cc(N2CC3(CCN(c4ncc5cnn(CC(F)F)c5n4)C3)C2)nc(C(F)(F)F)n1` [Cmpd 466]: less than 4.00.

Source of the values: patent publication US20250034170A1, “SMALL MOLECULE MODULATORS OF GLUCOCEREBROSIDASE ACTIVITY AND USES THEREOF” (Vanqua Bio, Inc., priority 2021, published 2025).
